Structures can show the parent of a compound that is named as a salt.
How the values were obtained:
Format in all cases: physicochemical
[1] = Influencing factor experiment (stability under high temperature, high humidity, light)
Description: (§1) Each test sample was placed under high temperature (60 °C), high humidity (92.5%), light (7000 lux), or accelerated (40 °C, 75% RH) conditions using a 2 mL screw-thread sample vial in an open state; each sample was placed with packaging (2 layers of medicinal low-density polyethylene bags + 1 layer of polyester/aluminum/polyethylene medicinal composite film bag) under light (7000 lux) or accelerated (40 °C, 75% RH) conditions to investigate the stability of the sample.

[2] = Solubility experiment in water
Description: The thermodynamic solubility of the compounds of the present disclosure was determined using the following test method.
The thermodynamic solubility of the compounds of the present disclosure in water was investigated. Water (1000 µL) was measured and placed into a 1 mL transparent glass tube with a stopper. An appropriate amount of each sample was weighed and added to saturate the solution, and the solution was shaken to disperse the sample. […] Then, an appropriate amount of the sample was taken, filtered through a microporous filter membrane, and subjected to content determination using high-performance liquid chromatography with an external standard method. The thermodynamic solubility of each compound in water (µg/mL) was calculated.

[3] = Accelerated experiment (stability at 40 °C, 75% RH)
Description: as §1

[4] = Hygroscopicity experiment (dynamic vapor sorption); details: 80.0% RH, 25 °C
Description: Test conditions for the instruments used in the experiments of the present disclosure: • 1. X-ray powder diffraction • Instrument model: Bruker D8 Focus • X-ray light source: Cu Kα • Kα1 (Å): 1.54060; • Wavelength λ (Å): 1.54060 • Slit (°): 2.5 • Scan mode: θ/2θ, scan range: 3-40° (2θ angle) • Retention time (s): 0.12 • Scanning step length (° 2θ): 0.01 • Voltage: 40 kV • Current: 40 mA • 2. Differential scanning calorimeter • Instrument model: Discovery DSC 2500 • Purging gas: nitrogen • Sample tray: aluminum tray, non-sealing gland • Method: linear heating • Ramping rate: 10 °C/min • Temperature range: 30 °C-400 °C • 3. Thermogravimetric analyzer • Instrument model: Discovery TA 55 • Purging gas: nitrogen • Sample tray: platinum, open • Method: linear heating • Ramping rate: Ramp from a starting temperature of 30 °C to 400 °C at a rate of 10 °C/min • Temperature range: 30 °C-400 °C • 4. Dynamic vapor sorption instrument • Instrument model: DVS Intrinsic. • DVS parameters: • Temperature: 25 °C; • Equilibrium: dm/dt = 0.002%/min • RH (%) test gradient: 10% • Range of RH (%) test gradient: 0%-90%-0%. • 5. Ion chromatography • Instrument model: Thermo Fisher Integrion, No. IC001 • Test method: Conductivity […] • Separation column: Dionex IonpacTM CS12 Guard 4 × 250 mm • Eluent: 20 mM methanesulfonic acid solution • Flow rate: 1.0 mL/min
• (1) Experimental instrument: dynamic vapor sorption DVS Intrinsic. • (2) Experimental conditions: Each test sample was taken and placed in a DVS sample pan for testing. • (3) DVS parameters: • Temperature: 25 °C; • Equilibrium: dm/dt = 0.002%/min • RH (%) test gradient: 10% • Range of RH (%) test gradient: 0%-90%-0%.

[5] = Light (7000 lux, packaged), 10d
[6] = Light (7000 lux, packaged), 32d
[7] = Accelerated (40 °C), packaged, 14d
[8] = Accelerated (40 °C), packaged, 32d

COc1ccc(Cl)cc1-c1cc(C)ncc1C(=O)Nc1nc2ncc(-c3ccc(C#N)cc3)nc2s1 [Amorphous form of sodium salt of compound of formula I]
Purity ([1]; 0 h, 0d): 99.31%
Total impurities ([1]; 0 h, 0d): 0.52%
Purity ([1]; High humidity (92.5% RH), 11d): 98.89%
Total impurities ([1]; High humidity (92.5% RH), 11d): 1.11%
Purity ([1]; High temperature (60 °C), 11d): 99.23%
Total impurities ([1]; High temperature (60 °C), 11d): 0.77%
Purity ([1]; Light (7000 lux, open), 7d): 97.57%
Total impurities ([1]; Light (7000 lux, open), 7d): 2.43%
Dynamic solubility in water ([2]; 1h, 60 min): 1.57 µg/mL
Dynamic solubility in water ([2]; 2h, 120 min): 4.37 µg/mL
Dynamic solubility in water ([2]; 4h, 240 min): 44.68 µg/mL
Dynamic solubility in water ([2]; 24h, 1440 min): 0.72 µg/mL
Purity ([3]; 0 h, 0d): 99.31%
Total impurities ([3]; 0 h, 0d): 0.52%
Purity ([3]; Accelerated (40 °C), open, 7d): 99.33%
Total impurities ([3]; Accelerated (40 °C), open, 7d): 0.67%

COc1ccc(Cl)cc1-c1cc(C)ncc1C(=O)Nc1nc2ncc(-c3ccc(C#N)cc3)nc2s1 [Crystal form A]
Purity ([1]; 0 h, 0d): 99.21%
Total impurities ([1]; 0 h, 0d): 0.79%
Purity ([1]; High humidity (92.5% RH), 7d): 99.26%
Total impurities ([1]; High humidity (92.5% RH), 7d): 0.74%
Purity ([1]; High humidity (92.5% RH), 14d): 99.20%
Total impurities ([1]; High humidity (92.5% RH), 14d): 0.80%
Purity ([1]; High humidity (92.5% RH), 32d): 99.21%
Total impurities ([1]; High humidity (92.5% RH), 32d): 0.79%
Purity ([1]; High temperature (60 °C), 7d): 99.23%
Total impurities ([1]; High temperature (60 °C), 7d): 0.77%
Purity ([1]; High temperature (60 °C), 14d): 99.17%
Total impurities ([1]; High temperature (60 °C), 14d): 0.83%
Purity ([1]; High temperature (60 °C), 32d): 99.15%
Total impurities ([1]; High temperature (60 °C), 32d): 0.85%
Purity ([1]; Light (7000 lux, open), 7d): 99.11%
Total impurities ([1]; Light (7000 lux, open), 7d): 0.89%
Purity ([1]; Light (7000 lux, open), 14d): 98.75%
Total impurities ([1]; Light (7000 lux, open), 14d): 1.25%
Purity ([1]; Light (7000 lux, open), 32d): 98.24%
Total impurities ([1]; Light (7000 lux, open), 32d): 1.76%
Purity [1, 5]: 99.19%
Total impurities [1, 5]: 0.81%
Purity [1, 6]: 99.22%
Total impurities [1, 6]: 0.78%
Dynamic solubility in water ([2]; 1h, 60 min): 2081.71 µg/mL
Dynamic solubility in water ([2]; 2h, 120 min): 1590.35 µg/mL
Dynamic solubility in water ([2]; 4h, 240 min): 1441.04 µg/mL
Dynamic solubility in water ([2]; 24h, 1440 min): 27.01 µg/mL
Purity ([3]; 0 h, 0d): 99.21%
Total impurities ([3]; 0 h, 0d): 0.79%
Purity ([3]; Accelerated (40 °C), open, 7d): 99.21%
Total impurities ([3]; Accelerated (40 °C), open, 7d): 0.79%
Purity ([3]; Accelerated (40 °C), open, 14d): 99.17%
Total impurities ([3]; Accelerated (40 °C), open, 14d): 0.83%
Purity ([3]; Accelerated (40 °C), open, 32d): 99.18%
Total impurities ([3]; Accelerated (40 °C), open, 32d): 0.82%
Purity [3, 7]: 99.19%
Total impurities [3, 7]: 0.81%
Purity [3, 8]: 99.19%
Total impurities [3, 8]: 0.81%
weight gain due to moisture absorption [4]: 1.6%

COc1ccc(Cl)cc1-c1cc(C)ncc1C(=O)Nc1nc2ncc(-c3ccc(C#N)cc3)nc2s1 [Crystal form B]
Purity ([1]; 0 h, 0d): 98.89%
Total impurities ([1]; 0 h, 0d): 1.11%
Purity ([1]; High humidity (92.5% RH), 7d): 98.60%
Total impurities ([1]; High humidity (92.5% RH), 7d): 1.40%
Purity ([1]; High humidity (92.5% RH), 14d): 98.89%
Total impurities ([1]; High humidity (92.5% RH), 14d): 1.11%
Purity ([1]; High humidity (92.5% RH), 32d): 98.83%
Total impurities ([1]; High humidity (92.5% RH), 32d): 1.17%
Purity ([1]; High temperature (60 °C), 7d): 98.98%
Total impurities ([1]; High temperature (60 °C), 7d): 1.02%
Purity ([1]; High temperature (60 °C), 14d): 98.93%
Total impurities ([1]; High temperature (60 °C), 14d): 1.07%
Purity ([1]; High temperature (60 °C), 32d): 98.84%
Total impurities ([1]; High temperature (60 °C), 32d): 1.16%
Purity ([1]; Light (7000 lux, open), 7d): 98.84%
Total impurities ([1]; Light (7000 lux, open), 7d): 1.16%
Purity ([1]; Light (7000 lux, open), 14d): 98.85%
Total impurities ([1]; Light (7000 lux, open), 14d): 1.15%
Purity ([1]; Light (7000 lux, open), 32d): 98.73%
Total impurities ([1]; Light (7000 lux, open), 32d): 1.27%
Purity [1, 5]: 98.90%
Total impurities [1, 5]: 1.10%
Purity [1, 6]: 98.90%
Total impurities [1, 6]: 1.10%
Dynamic solubility in water ([2]; 1h): <0.5 µg/mL
Dynamic solubility in water ([2]; 2h): <0.5 µg/mL
Dynamic solubility in water ([2]; 4h): <0.5 µg/mL
Dynamic solubility in water ([2]; 24h): 0.77 µg/mL
Purity ([3]; 0 h, 0d): 98.89%
Total impurities ([3]; 0 h, 0d): 1.11%
Purity ([3]; Accelerated (40 °C), open, 7d): 98.84%
Total impurities ([3]; Accelerated (40 °C), open, 7d): 1.16%
Purity ([3]; Accelerated (40 °C), open, 14d): 98.87%
Total impurities ([3]; Accelerated (40 °C), open, 14d): 1.13%
Purity ([3]; Accelerated (40 °C), open, 32d): 98.88%
Total impurities ([3]; Accelerated (40 °C), open, 32d): 1.12%
Purity [3, 7]: 98.87%
Total impurities [3, 7]: 1.13%
Purity [3, 8]: 98.82%
Total impurities [3, 8]: 1.18%
weight gain due to moisture absorption [4]: 1.5%

COc1ccc(Cl)cc1-c1cc(C)ncc1C(=O)Nc1nc2ncc(-c3ccc(C#N)cc3)nc2s1 [Crystal form C]
Purity ([1]; 0 h, 0d): 99.2%
Total impurities ([1]; 0 h, 0d): 0.80%
Purity ([1]; High humidity (92.5% RH), 7d): 99.21%
Total impurities ([1]; High humidity (92.5% RH), 7d): 0.79%
Purity ([1]; High humidity (92.5% RH), 14d): 99.20%
Total impurities ([1]; High humidity (92.5% RH), 14d): 0.80%
Purity ([1]; High temperature (60 °C), 7d): 99.26%
Total impurities ([1]; High temperature (60 °C), 7d): 0.74%
Purity ([1]; High temperature (60 °C), 14d): 99.22%
Total impurities ([1]; High temperature (60 °C), 14d): 0.78%
Purity ([1]; Light (7000 lux, open), 7d): 98.29%
Total impurities ([1]; Light (7000 lux, open), 7d): 1.71%
Purity ([1]; Light (7000 lux, open), 14d): 97.16%
Total impurities ([1]; Light (7000 lux, open), 14d): 2.84%
Dynamic solubility in water ([2]; 1h, 60 min): 857.52 µg/mL
Dynamic solubility in water ([2]; 4h, 240 min): 1337.74 µg/mL
Dynamic solubility in water ([2]; 24h, 1440 min): 108.15 µg/mL
Purity ([3]; 0 h, 0d): 99.2%
Total impurities ([3]; 0 h, 0d): 0.8%
Purity ([3]; Accelerated (40 °C), open, 7d): 99.20%
Total impurities ([3]; Accelerated (40 °C), open, 7d): 0.80%
Purity ([3]; Accelerated (40 °C), open, 14d): 99.21%
Total impurities ([3]; Accelerated (40 °C), open, 14d): 0.79%
weight gain due to moisture absorption [4]: -4.3%

COc1ccc(Cl)cc1-c1cc(C)ncc1C(=O)Nc1nc2ncc(-c3ccc(C#N)cc3)nc2s1 [Crystal form E]
Purity ([1]; 0 h, 0d): 99.39%
Total impurities ([1]; 0 h, 0d): 0.52%
Purity ([1]; High humidity (92.5% RH), 11d): 99.48%
Total impurities ([1]; High humidity (92.5% RH), 11d): 0.52%
Purity ([1]; High temperature (60 °C), 11d): 99.25%
Total impurities ([1]; High temperature (60 °C), 11d): 0.75%
Purity ([1]; Light (7000 lux, open), 7d): 99.24%
Total impurities ([1]; Light (7000 lux, open), 7d): 0.76%
physical stability ([1]; high humidity (92.5% RH)): relatively poor physical stability
Dynamic solubility in water ([2]; 1h, 60 min): <0.5 µg/mL
Dynamic solubility in water ([2]; 2h, 120 min): 1.03 µg/mL
Dynamic solubility in water ([2]; 4h, 240 min): 2.26 µg/mL
Dynamic solubility in water ([2]; 24h, 1440 min): 2.72 µg/mL
Purity ([3]; 0 h, 0d): 99.39%
Total impurities ([3]; 0 h, 0d): 0.52%
Purity ([3]; Accelerated (40 °C), open, 7d): 99.49%
Total impurities ([3]; Accelerated (40 °C), open, 7d): 0.51%
physical stability ([3]; accelerated (40 °C, 75% RH)): relatively poor physical stability
weight gain due to moisture absorption [4]: 2.5%

From patent EP4745145A1, “SALT OF THIAZOLOPYRAZINE COMPOUND OR CRYSTAL THEREOF AND USE THEREOF” (Simcere Zaiming Pharmaceutical Co., Ltd., priority 2023, dated 2025)
